Among the data in ChEMBL document CHEMBL1150911, “New ceramide from marine sponge Haliclona koremella and related compounds as antifouling substances against macroalgae” (J Nat Prod, 1998) are Activity values, retold here.

Data set [1] deals with Ulva. The data set can be described thus: Toxicity against Ulva conglobata at 50 ppm. Type of data set: organism-based. To be noted: in vivo.
Data set [2] relates to Anagnostidinema amphibium. The data set can be described thus: Antimicrobial activity against Oscillatoria amphibia at 5 ppm. Type of data set: functional, organism-based.
For data set [3], the system named is Brachiomonas submarina. The data set can be described thus: Antimicrobial activity against […] at 5 ppm. The data set is classed as functional, organism-based.
The test system of data set [4] is Prorocentrum micans. Put plainly: Antimicrobial activity against Prorocentrum micans at 5 ppm. The data set is classed as functional, organism-based.
The subject of data set [5] is Brachiomonas submarina. The data set can be described thus: Antimicrobial activity against […] at 1 ppm. The data set is classed as functional, organism-based.
For data set [6], the system named is Anagnostidinema amphibium. The data set can be described thus: Antimicrobial activity against Oscillatoria amphibia at 1 ppm. Type of data set: functional, organism-based.
For data set [7], the system named is Skeletonema costatum. Put plainly: Antimicrobial activity against Skeletonema costatum at 5 ppm. Type of data set: functional, organism-based.
Data set [8] deals with Ulva. The data set can be described thus: Antifouling activity against Ulva conglobata spores assessed as germination and attachment rate at 5 ppm. The data set is classed as functional.
Data set [9] has as its system Ulva. The data set can be described thus: Antifouling activity against Ulva conglobata spores assessed as germination and attachment rate at 1 ppm. The data set is classed as functional.

Each structure is given as a SMILES string. Active and inactive are the calls of the source. No cut-off for these calls is given here.

As to `CCCCCCCCCCCCCCCCCCCCCC(=O)N[C@@H](CO)[C@H](O)/C=C/CCCCCCCCCCC(C)C`, in [1], the Activity entry is given as “Non-toxic”.

Regarding `CCCCCCCCCCCCCCC[C@@H](O)[C@@H](N)CO`, the result in data set [2], in data set [3], in data set [4], in data set [5] and in [6] was Active.

On to `CCCCCCCCCCCCC/C=C/[C@@H](O)[C@H](CO)NC(=O)CCCCCCC`, for which, in [1], the Activity result is on record as “Non-toxic”.

In the case of `CCCCCCCCCCCCC/C=C/[C@@H](O)[C@H](CO)NC(=O)CCCCC`, the Activity entry in data set [1] is given as “Non-toxic”.

In the case of `CCCCCCCCCCCCC/C=C/[C@@H](O)[C@@H](N)CO` [SPHINGOSINE], the result in [2], in data set [7], in [3] and in data set [4] was Active. Also, the Activity in [8] was found to be 0%; in data set [9], 15%.

Take `CCCCCCCCCCCCC/C=C/[C@@H](O)[C@H](CO)N(C)C`: the outcome in data set [2], in [7], in data set [3], in data set [4] and in data set [8] was Active.

For the molecule `CCCCCCCCCCCCC/C=C/[C@@H](O)[C@H](CO)NC(C)=O`, the Activity entry in data set [1] is listed as “Non-toxic”.

As to `CCCCCCCCCCCCC/C=C/[C@@H](O)[C@H](CO)NC(=O)CCCCCCCCCCCCCCC`, in [1], the Activity entry is “Non-toxic”.
